Experimental data reported in patent publication US8207314B2, “Tumor antigens for prevention and/or treatment of cancer” (Sanofi Pasteur Limited, priority 2003, dated 2012).

How the values were obtained:
[1] = system: Non-transfected CosA2 cells; assay: Zeocin selection of non-transfected cells; assay type: cell-based; details: for confluency of surviving cells: three weeks
Protocol: A stable transfection study was initiated to obtain stable clones of BFA4 expressing COS A2 cells. These cells are useful for in vitro stimulation assays pcDNA 3.1 zeo^R/BFA4 (2.5 μg and 20 μg), and pcDNA 3.1 zeo^R/BFA4/MycHis tag (2.5 μg) were used to study expression of BFA4). pGL3 Luciferase (2.5 μg) was used as a control vector to monitor transfection efficiency. The Gene porter reagent was used to facilitate transfection of DNA vectors. After 48 h post-transfection, whole cell extract were prepared by scraping cells in the cell lysis reagent (200 μl) and 1 cycle of freeze-thaw at −20° C./37° C. for first experiment. Transfected cells obtained from the second experiment were trypsinized, frozen stock established and cells were plated in increasing concentrations of Zeocin (0, 250, 500, 750 and 1000 μg/ml). Non-transfected CosA2cells survived at 60-80% confluency for three weeks at 100 μg/ml (Zeocin) and 10% confluency at 250 μg/ml (Zeocin).

[2] = system: HLA-A*0201 human T cells; assay: IFN-γ ELISPOT of human T cells activated with BFA5/NYBR-1 peptide pools and single peptides; assay type: cell-based; details: for BFA5 peptides eliciting high IFN-γ release (>200 spots/100,000 cells): listing = result; for IFN-γ secretion in T cells from both donors: donors AP10 and AP31
Protocol: A library of 100 peptides from the BFA5/NYBR-1 coding sequence that are predicted to be medium to high binders to HLA-A*0201 were designed using Rammensee and Parker algorithms. The library was sub-divided into 10 pools of ten peptides (see Table XI), and each pool was used to activate 10 different T cell cultures after pulsing peptides on to mature autologous dendritic cells.
ELISPOT analysis was performed on human T-cell cultures activated through four rounds of stimulation with each pool of BFA5 peptides. In FIG. 13A, the numbers under the X-axis indicate the number of each peptide pool (1-10). Reactivity against a CMV pp65 peptide, and a Flu matrix peptide were used as positive controls for T-cell activation in the experiments. Each experiment was performed with PBMC and dendritic cells from a single HLA-A*0201^+ donor designated as “AP10”. […] Similar results were obtained for both BFA4 and BFA5/NYBR-1 with a different HLA-A*0201. […] Cultures having a reading of 600 spots have more than this number of spots.
A large number of the BFA5 peptide pools of are reactive as shown by the high levels of IFN-γ production (FIG. 13A). Each reactive peptide pool was then separated into individual peptides and analyzed for immunogenicity using ELISPOT analysis to isolate single reactive BFA5 peptides. […] Similar results were obtained in two independent PBMC culture experiments.

[3] = system: BFA4; assay: Rabbit antibody titers after immunization with BFA4 22-mer peptides; assay type: in vivo
Source text: For monitoring purposes, rabbit anti-BFA4 polyclonal antibodies were generated. Six peptides (22-mers) were designed and synthesized to elicit antibody response to BFA4, as shown below:
Rabbits were immunized with the peptides, serum was isolated, and the following antibody titers were observed: […]

[4] = system: peptide-loaded human T2 lymphoma cell targets; assay: CTL killing of BFA4 peptide-pulsed target cells; assay type: cell-based; details: single BFA4 peptides, listing = result
[5] = system: peptide-loaded T2 cells; assay: 51Cr-release CTL assay with BFA5 peptide-activated human T cells; assay type: cell-based; details: for BFA5 peptides inducing CTL lysis of pulsed cells: Donor AP10, listing = result; for CTL activity in T cells from both donors: donors AP10 and AP31
Protocol: In addition to ELISPOT analysis, human T cells activated by BFA5 peptides were assayed to determine their ability to function as CTL. The cells were activated using peptide-pulsed dendritic cells followed by CD40 ligand-activated B cells (5 rounds of stimulation). The experiment shown was performed with isolated PBMC from HLA-A*0201^+ donor AP31. Isolated T cells were tested in ^51Cr-release assays using peptide-loaded T2 cells. The % specific lysis at a 10:1, 5:1, and 1:1 T-cell to target ratio is shown for T2 cells pulsed with either pools of BFA5/NYBR-1 peptides or with individual peptides. […] CTL activity (percent specific lysis) induced by the control HIV peptide was generally <10%. Similar results were obtained with another PBMC donor expressing HLA-A*0201 (AP10). […]

[6] = system: Human PBMC from an HLA-A2.1 positive donor; assay: IFN-γ ELISPOT of human T cells activated with BFY3 peptide pools and deconvolution to single peptides; assay type: cell-based; details: BFY3 nonamer peptides; listing = result
Source text: Human PBMC from an HLA-A2.1 positive donor designated AP31 were activated with autologous dendritic cells pulsed with different pools of 9-mer peptides from the BFY3 antigen (see Table I for list). The activated T cells were re-stimulated after 12 days with activated autologous CD40-ligand-activated B cells pulsed with the same respective peptide pools for another 8 to 10 days. This secondary activation was repeated 2 more time for a total of 4 stimulations. The activated T cells were isolated after the 4th stimulation and subjected to ELISPOT analysis for human IFN-γ production against their respective BFY3 peptide pools as shown. The blue bars show reactivity against the BFY3 peptide pools and the red bars are for an HLA-A2.1-binding HIV peptide as a negative control. Standard deviations are indicated. The experiment was repeated 2 times on activated T cells from different rounds of peptide stimulation with the similar results (FIG. 17A).
The BFY3 peptide pools were deconvoluted and studied in IFN-γ ELISPOT assays. Stimulation was performed as described earlier for the other antigens described. After 4 rounds of stimulation, the T cells from each culture were harvested and subjected to ELISPOT analysis for IFN-γ production with each individual peptide in each pool. FIG. 17B illustrates individual peptide reactivity for each specific pool.

[7] = system: targets pulsed with corresponding peptide pools; assay: CTL killing of targets pulsed with BFY3 peptide pools or peptides; assay type: cell-based, human; details: for Peptides eliciting CTL activity (peptide pulsed targets): BFY3 nonamer peptides, listing = result; for recognition of single peptides by CTL: BFY3 peptides, peptide-pulsed targets
Protocol: In addition to ELISPOT analysis, human T cells activated by BFY3 peptides were assayed for reactivity. Ten pools of peptides consisting often peptides per pool used to generate CTL. These 10 groups of effectors used to kill targets pulsed with corresponding peptide pools. […]

[8] = first-listed rabbit of the pair
[9] = second-listed rabbit of the pair

Cc1c(N)nc([C@H](CC(N)=O)NC[C@H](N)C(N)=O)nc1C(=O)N[C@H](C(=O)N[C@H](C)[C@@H](O)[C@H](C)C(=O)N[C@H](C(=O)NCCC1=N[C@@H](c2nc(C(=O)NCCCCN=C(N)N)cs2)CS1)[C@@H](C)O)[C@@H](O[C@@H]1O[C@@H](CO)[C@@H](O)[C@H](O)[C@@H]1O[C@H]1O[C@H](CO)[C@@H](O)[C@H](OC(N)=O)[C@@H]1O)c1cnc[nH]1 [Zeocin]
confluency of surviving cells ([1]; 100 μg/ml): 60-80%
confluency of surviving cells ([1]; 250 μg/ml): 10%
live cells ([1]; 500-1000 μg/ml, after three weeks): live cells were not observed

ALRICDIEL [CLP 3043]
BFA5 peptides eliciting high IFN-γ release (>200 spots/100,000 cells) ([2]; Donor AP10): ALRIQDIEL

ANGASKEKTKAPPNVKNEGPLNV [CLP2594]
Titer (Bleed 2) [3, 8]: 409600, 409600
Titer (Final Bleed) [3, 8]: 320000, 320000
Titer (Bleed 2) [3, 9]: 409600, 409600
Titer (Final Bleed) [3, 9]: 320000, 320000

ASLGLLTPV [CLP 2482]
Strong CTL Killing (listed as highly immunoreactive peptide) [4]: ASLGLLTPV

ATDGMKVSI [CLP 3054]
BFA5 peptides eliciting high IFN-γ release (>200 spots/100,000 cells) ([2]; Donor AP10): ATCGMKVSI
BFA5 peptides inducing CTL lysis of pulsed cells [5]: ATCGMKVSI

ELCSVRLTL [CLP 3050]
IFN-γ secretion in T cells from both donors [2]: induce
CTL activity in T cells from both donors [5]: induce

FTTPDVDVL [CLP 2468]
Strong CTL Killing (listed as highly immunoreactive peptide) [4]: FTTPDVDVL

GLHRNNAQV [CLP 2520]
Strong CTL Killing (listed as highly immunoreactive peptide) [4]: GLHRNNAQV

HLARDFGYV [CLP 3387]
Peptides eliciting strong IFN-γ ELISPOT activity [6]: HLARDFGYV
Peptides eliciting CTL activity (peptide pulsed targets) [7]: HLARDFGYV
recognition of single peptides by CTL [7]: strongly recognized

HLARPIYGL [CLP 2486]
Strong CTL Killing (listed as highly immunoreactive peptide) [4]: HLARPIYGL

ILIDSGADI [CLP 3005]
IFN-γ secretion in T cells from both donors [2]: induce
CTL activity in T cells from both donors [5]: induce

ILSVVAKLL [CLP 3011]
IFN-γ secretion in T cells from both donors [2]: induce
CTL activity in T cells from both donors [5]: induce

KAANVTLLT [CLP 3378]
Peptides eliciting strong IFN-γ ELISPOT activity [6]: KAANVTLLT
Peptides eliciting CTL activity (peptide pulsed targets) [7]: KAANVTLLT
recognition of single peptides by CTL [7]: strongly recognized

KLDKIGLNL [CLP 3372]
Peptides eliciting strong IFN-γ ELISPOT activity [6]: KLDKIGLNL
Peptides eliciting CTL activity (peptide pulsed targets) [7]: KLDKIGLNL
recognition of single peptides by CTL [7]: strongly recognized

KSQIEPAFH [CLP 3037]
BFA5 peptides eliciting high IFN-γ release (>200 spots/100,000 cells) ([2]; Donor AP31): KSQEPAFHI

KYKVTVAEV [CLP 3362]
Peptides eliciting strong IFN-γ ELISPOT activity [6]: KYKVTVAEV
Peptides eliciting CTL activity (peptide pulsed targets) [7]: KYKVTVAEV
recognition of single peptides by CTL [7]: Moderately recognized

LLGGVLRRA [CLP 3369]
Peptides eliciting strong IFN-γ ELISPOT activity [6]: LLGGVLRRA
Peptides eliciting CTL activity (peptide pulsed targets) [7]: LLGGVLRRA
recognition of single peptides by CTL [7]: Moderately recognized

LMDMQTFKA [CLP 2983]
IFN-γ secretion in T cells from both donors [2]: induce
CTL activity in T cells from both donors [5]: induce

LNASLLGGV [CLP 3366]
Peptides eliciting strong IFN-γ ELISPOT activity [6]: LNASLLGGV

MLAFSFPAA [CLP 2427]
Strong CTL Killing (listed as highly immunoreactive peptide) [4]: MLAFSFPAA

MVRKKNPPLRNVASEGEGQILE [CLP2589]
Titer (Bleed 2) [3, 8]: 800000
Titer (Final Bleed) [3, 8]: 2560000, 2560000
Titer (Bleed 2) [3, 9]: 1600000
Titer (Final Bleed) [3, 9]: 2560000, 2560000

NACGLYQKL [CLP 2495]
Strong CTL Killing (listed as highly immunoreactive peptide) [4]: NACGLYQKL

NGEQIIRRRTRKRLNPEALQAE [CLP2593]
Titer (Bleed 2) [3, 8]: 3200000
Titer (Final Bleed) [3, 8]: 2560000
Titer (Bleed 2) [3, 9]: 51200
Titer (Final Bleed) [3, 9]: 160000

NHLQGSDGQQSVKESKEHSCTK [CLP2592]
Titer (Bleed 2) [3, 8]: 25600
Titer (Final Bleed) [3, 8]: 80000
Titer (Bleed 2) [3, 9]: 12800
Titer (Final Bleed) [3, 9]: 40000

NLFGGVVNP [CLP 3351]
Peptides eliciting strong IFN-γ ELISPOT activity [6]: NLFGGVVNP

NMLAFSFPA [CLP 2426]
Strong CTL Killing (listed as highly immunoreactive peptide) [4]: NMLAFSFPA

NVTLLTSLV [CLP 3380]
Peptides eliciting strong IFN-γ ELISPOT activity [6]: NVTLLTSLV

RLNPEALQA [CLP 2499]
Strong CTL Killing (listed as highly immunoreactive peptide) [4]: RLNPEALQA

RNMLAFSFP [CLP 2425]
Strong CTL Killing (listed as highly immunoreactive peptide) [4]: RNMLAFSFP

SCLTHFNLI [CLP 3403]
Peptides eliciting strong IFN-γ ELISPOT activity [6]: SCLTHFNLI

SHGFGSPAV [CLP 3407]
Peptides eliciting strong IFN-γ ELISPOT activity [6]: SHGFGSPAV

SLPHAIEEV [CLP 3343]
Peptides eliciting strong IFN-γ ELISPOT activity [6]: SLPHAIEEV

SPKATEETGQAQSGQANCQGLS [CLP2590]
Titer (Bleed 2) [3, 8]: 12800
Titer (Final Bleed) [3, 8]: 40000, 40000
Titer (Bleed 2) [3, 9]: 6400
Titer (Final Bleed) [3, 9]: 40000, 40000

SQYSGQLKV [CLP 3015]
IFN-γ secretion in T cells from both donors [2]: induce
CTL activity in T cells from both donors [5]: induce

VAKPSEKNSNKSIPALQSSDSG [CLP2591]
Titer (Bleed 2) [3, 8]: 400000, 400000
Titer (Final Bleed) [3, 8]: 320000, 320000
Titer (Bleed 2) [3, 9]: 400000, 400000
Titer (Final Bleed) [3, 9]: 320000, 320000

YLLHENQML [CLP 2997]
BFA5 peptides eliciting high IFN-γ release (>200 spots/100,000 cells) ([2]; Donor AP10): YLLHENCML
BFA5 peptides eliciting high IFN-γ release (>200 spots/100,000 cells) ([2]; Donor AP31): YLLHENCML
BFA5 peptides inducing CTL lysis of pulsed cells [5]: YLLHENCML

YLTEALKAM [CLP 3415]
Peptides eliciting strong IFN-γ ELISPOT activity [6]: YLTEALKAM

YVPYPTFNL [CLP 2509]
Strong CTL Killing (listed as highly immunoreactive peptide) [4]: YVPYPTFNL
